In US9988430B2, “Stable GLP-1 based GLP-1/glucagon receptor co-agonists” (Novo Nordisk A/S, priority 2014, dated 2018):
*1 amine or outer side, *2 acyl side, *3 side chain or, on linkers, in order; H or OH if unused. Where a SMILES comes first, the peptide text is derived from it. Bridges are numbered along the chain shown (N, C = ends). Roman numbers before positions name the chains, in order. Side-chain parts run from the residue outwards. [ ]: non-standard residue; d: D form. The star is where a group is joined. C18 diacid = O=C(O)CCCCCCCCCCCCCCCCC(=O)*; γGlu = O=C(O)[C@H](CCC(=O)[*:2])N[*:1]; Desaminohistidyl = O=C(CCc1c[nH]cn1)*; AEEA = NCCOCCOCC(=O)O; Aib = CC(C)(N)C(=O)O

molecular target: T1, human GLP-1 receptor (Homo sapiens, UniProt P43220); assay: Assay (I)(a): GLP-1 receptor potency, CRE luciferase reporter gene assay in BHK cells; type: cell-based; conditions: BHK cells expressing human GLP-1 receptor, read-out: EC50 GLP-1R
T1 construct: expressed in transfected cells; host or cells: membranes of BHK cells, parent line BHKTS13, clone FCW467-12A
How it was run: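 BHK cells (clone FCW467-12A/KZ10-1), 5×10EE3/well, exposed 3 h at 37° C to compound at 1×10EE-13 to 1×10EE-6 M final in medium with 2% ovalbumin and 0.2% Pluronic F-68. Luciferase luminescence read; EC50 (pM) from four-parameter fit.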

T1 sequence (P43220 24-463): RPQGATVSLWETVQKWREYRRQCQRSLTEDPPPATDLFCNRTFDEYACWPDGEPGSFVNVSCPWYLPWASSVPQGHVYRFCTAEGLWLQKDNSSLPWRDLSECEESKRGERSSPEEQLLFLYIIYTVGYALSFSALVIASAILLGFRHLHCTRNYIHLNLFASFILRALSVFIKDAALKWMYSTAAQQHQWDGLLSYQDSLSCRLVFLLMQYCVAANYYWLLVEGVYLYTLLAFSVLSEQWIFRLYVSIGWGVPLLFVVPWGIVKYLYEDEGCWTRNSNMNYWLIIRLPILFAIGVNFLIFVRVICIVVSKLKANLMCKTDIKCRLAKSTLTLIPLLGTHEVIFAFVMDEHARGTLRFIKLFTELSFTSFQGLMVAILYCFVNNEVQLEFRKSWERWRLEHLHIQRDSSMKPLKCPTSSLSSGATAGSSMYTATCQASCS

Row | SMILES | EC50
1 | CC[C@H](C)[C@H](NC(=O)[C@H](Cc1ccccc1)NC(=O)[C@H](CCC(=O)O)NC(=O)[C@H](CCCNC(=N)N)NC(=O)[C@H](C)NC(=O)[C@H](C)NC(=O)[C@H](CCCNC(=N)N)NC(=O)CNC(=O)[C@H](CCC(=O)O)NC(=O)[C@H](CC(C)C)NC(=O)[C@H](Cc1ccc(O)cc1)NC(=O)[C@H](CCCNC(=N)N)NC(=O)[C@H](CO)NC(=O)[C@@H](NC(=O)[C@H](CC(=O)O)NC(=O)[C@H](CO)NC(=O)[C@@H](NC(=O)[C@H](Cc1ccccc1)NC(=O)[C@@H](NC(=O)CNC(=O)[C@H](Cc1c[nH]cn1)NC(=O)C(C)(C)NC(=O)CCc1c[nH]cn1)[C@@H](C)O)[C@@H](C)O)C(C)C)C(=O)N[C@@H](C)C(=O)N[C@@H](Cc1c[nH]c2ccccc12)C(=O)N[C@@H](CC(C)C)C(=O)N[C@@H](CC(C)C)C(=O)N[C@@H](CCCCNC(=O)CC[C@H](NC(=O)CC[C@H](NC(=O)COCCOCCNC(=O)CC[C@H](NC(=O)CC[C@H](NC(=O)CCCCCCCCCCCCCCCCC(=O)O)C(=O)O)C(=O)O)C(=O)O)C(=O)O)C(=O)NCC(=O)N[C@@H](C)C(=O)NCC(=O)O [Example 35, N^ε34-[(4S)-4-carboxy-4-[[(4S)-4-carboxy-4-[[2-[2-[2-[[(4S)-4-carboxy-4-[[(4S)-4-carboxy-4-(17-carboxyheptadecanoylamino)butanoyl]amino]butanoyl]amino]ethoxy]ethoxy]acetyl]amino]butanoyl]amino]butanoyl]-[Imp7,Aib8,His9,Arg18,Arg23,Arg26,Leu33,Ala36]-GLP-1-(7-37)-peptide] (Desaminohistidyl-[Aib]HGTFTSDVSRYLEGRAAREFIAWLLK([γGlu-γGlu-AEEA-γGlu-γGlu-C18 diacid])GAG-OH) | 3 pM
2 | CC[C@H](C)[C@H](NC(=O)[C@H](Cc1ccccc1)NC(=O)[C@H](CCC(=O)O)NC(=O)[C@H](CCCNC(=N)N)NC(=O)[C@H](C)NC(=O)[C@H](C)NC(=O)[C@H](CCC(N)=O)NC(=O)[C@H](CCC(=O)O)NC(=O)[C@H](CCC(=O)O)NC(=O)[C@H](CC(C)C)NC(=O)[C@H](Cc1ccc(O)cc1)NC(=O)[C@H](CCCCN)NC(=O)[C@H](CO)NC(=O)[C@@H](NC(=O)[C@H](CC(=O)O)NC(=O)[C@H](CO)NC(=O)[C@@H](NC(=O)[C@H](Cc1ccccc1)NC(=O)[C@@H](NC(=O)CNC(=O)[C@H](Cc1c[nH]cn1)NC(=O)C(C)(C)NC(=O)CCc1c[nH]cn1)[C@@H](C)O)[C@@H](C)O)C(C)C)C(=O)N[C@@H](C)C(=O)N[C@@H](Cc1c[nH]c2ccccc12)C(=O)N[C@@H](CC(C)C)C(=O)N[C@@H](CC(C)C)C(=O)N[C@@H](CCCCNC(=O)COCCOCCNC(=O)COCCOCCNC(=O)CC[C@H](NC(=O)CCCCCCCCCCCCCCCCC(=O)O)C(=O)O)C(=O)N[C@H](C(N)=O)[C@@H](C)O [Example 12, N^ε34-[2-[2-[2-[[2-[2-[2-[[(4S)-4-carboxy-4-(17-carboxyheptadecanoylamino)butanoyl]amino]ethoxy]ethoxy]acetyl]amino]ethoxy]ethoxy]acetyl]-[Imp7,Aib8,His9,Lys18,Glu22,Arg26,Leu33,Thr35]-GLP-1-(7-35)-peptide amide] (Desaminohistidyl-[Aib]HGTFTSDVSKYLEEQAAREFIAWLLK([AEEA-AEEA-γGlu-C18 diacid])T-NH2) | 6 pM

system: not listed separately; assay: Assay (V): chemical stability assessment by RP-UPLC; type: physicochemical; conditions: 14 days at 37° C. in phosphate buffer (pH 7.3)
Description: Assay (V): Chemical Stability Assessment
The purpose of this assay is to assess the chemical stability of the GLP-1 derivatives of the present invention in aqueous solutions.
Chemical stability of GLP-1 derivatives may be investigated by RP-UPLC separation and UV detection. Lyophilized samples are dissolved in a 8 mM Phosphate buffer pH 8.6, followed by adjustment to pH 7.3 using HCl to a final concentration of 333 μM. Samples are incubated for 14 days at 5° C. and 37° C. followed by RP-UPLC analysis. Purity is defined as the area percentage of the main peak in relation to the total area of all integrated peaks in each chromatogram. Purity loss, also referred to herein as chemical degradation, after 14 days at 37° C. is determined as the difference in purity between the samples incubated at 5° C. and 37° C., divided by the purity of the sample after incubation for 14 days at 5° C.
RP-UPLC analysis is performed using a Waters BEH130 2.1 mm×150 mm, 1.7 μm column operated at 50° C. and a flow rate of 0.4 mL/min using a mobile phase system consisting of A: 0.05% TFA in MQ-water, and B: 0.05% TFA in Acetonitrile. UV-detection is performed at 215 nm. The typical gradient profile used for most of the samples is shown below.
For some individual derivatives eluting at substantially different retention times compared with the majority of derivatives, some adjustments to the gradient profile are made to better enable purity assessment comparison across samples.

Row | SMILES | Chemical stability: Chemical degradation over 14 days at 37° C.
3 | CC[C@H](C)[C@H](NC(=O)[C@H](Cc1ccccc1)NC(=O)[C@H](CCC(=O)O)NC(=O)[C@H](CCCNC(=N)N)NC(=O)[C@H](C)NC(=O)[C@H](C)NC(=O)[C@H](CCC(N)=O)NC(=O)CNC(=O)[C@H](CCC(=O)O)NC(=O)[C@H](CC(C)C)NC(=O)[C@H](Cc1ccc(O)cc1)NC(=O)[C@H](CCCNC(=N)N)NC(=O)[C@H](CO)NC(=O)[C@@H](NC(=O)[C@H](CC(=O)O)NC(=O)[C@H](CO)NC(=O)[C@@H](NC(=O)[C@H](Cc1ccccc1)NC(=O)[C@@H](NC(=O)CNC(=O)[C@H](Cc1c[nH]cn1)NC(=O)C(C)(C)NC(=O)CCc1c[nH]cn1)[C@@H](C)O)[C@@H](C)O)C(C)C)C(=O)N[C@@H](C)C(=O)N[C@@H](Cc1c[nH]c2ccccc12)C(=O)N[C@@H](CC(C)C)C(=O)N[C@@H](CC(C)C)C(=O)N[C@@H](CCCCNC(=O)CNC(=O)[C@H](CO)NC(=O)[C@H](CCC(=O)O)NC(=O)CNC(=O)[C@H](CO)NC(=O)CC[C@H](NC(=O)CC[C@H](NC(=O)CCCCCCCCCCCCCCCCC(=O)O)C(=O)O)C(=O)O)C(=O)N[C@H](C(N)=O)[C@@H](C)O [Example 8, N^ε34-[2-[[(2S)-2-[[(2S)-4-carboxy-2-[[2-[[(2S)-2-[[(4S)-4-carboxy-4-[[(4S)-4-carboxy-4-(17-carboxyheptadecanoylamino)butanoyl]amino]butanoyl]amino]-3-hydroxypropanoyl]amino]acetyl]amino]butanoyl]amino]-3-hydroxypropanoyl]amino]acetyl]-[Imp7,Aib8,His9,Arg18,Arg26,Leu33,Thr35]-GLP-1-(7-35)-peptide amide] (I: Desaminohistidyl-[Aib]HGTFTSDVSRYLEGQAAREFIAWLLKT-NH2 / II: {C18 diacid-γGlu-γGlu}-SGESG; amide I:27-II:C) | 1.6%
4 | CC[C@H](C)[C@H](NC(=O)[C@H](Cc1ccccc1)NC(=O)[C@H](CCC(=O)O)NC(=O)[C@H](CCCNC(=N)N)NC(=O)[C@H](C)NC(=O)[C@H](C)NC(=O)[C@H](CCC(N)=O)NC(=O)[C@H](CCC(=O)O)NC(=O)[C@H](CCC(=O)O)NC(=O)[C@H](CC(C)C)NC(=O)[C@H](Cc1ccc(O)cc1)NC(=O)[C@H](CCCCN)NC(=O)[C@H](CO)NC(=O)[C@@H](NC(=O)[C@H](CC(=O)O)NC(=O)[C@H](CO)NC(=O)[C@@H](NC(=O)[C@H](Cc1ccccc1)NC(=O)[C@@H](NC(=O)CNC(=O)[C@H](Cc1c[nH]cn1)NC(=O)C(C)(C)NC(=O)CCc1c[nH]cn1)[C@@H](C)O)[C@@H](C)O)C(C)C)C(=O)N[C@@H](C)C(=O)N[C@@H](Cc1c[nH]c2ccccc12)C(=O)N[C@@H](CC(C)C)C(=O)N[C@@H](CC(C)C)C(=O)N[C@@H](CCCCNC(=O)COCCOCCNC(=O)COCCOCCNC(=O)CC[C@H](NC(=O)CCCCCCCCCCCCCCCCC(=O)O)C(=O)O)C(=O)N[C@H](C(N)=O)[C@@H](C)O [Example 12, N^ε34-[2-[2-[2-[[2-[2-[2-[[(4S)-4-carboxy-4-(17-carboxyheptadecanoylamino)butanoyl]amino]ethoxy]ethoxy]acetyl]amino]ethoxy]ethoxy]acetyl]-[Imp7,Aib8,His9,Lys18,Glu22,Arg26,Leu33,Thr35]-GLP-1-(7-35)-peptide amide] (Desaminohistidyl-[Aib]HGTFTSDVSKYLEEQAAREFIAWLLK([AEEA-AEEA-γGlu-C18 diacid])T-NH2) | 4.4%
5 | CC[C@H](C)[C@H](NC(=O)[C@H](Cc1ccccc1)NC(=O)[C@H](CCC(=O)O)NC(=O)[C@H](CCCNC(=N)N)NC(=O)[C@H](C)NC(=O)[C@H](C)NC(=O)[C@H](CCC(N)=O)NC(=O)[C@H](CCC(=O)O)NC(=O)[C@H](CCC(=O)O)NC(=O)[C@H](CC(C)C)NC(=O)[C@H](Cc1ccc(O)cc1)NC(=O)[C@H](CCCCN)NC(=O)[C@H](CO)NC(=O)[C@@H](NC(=O)[C@H](CC(=O)O)NC(=O)[C@H](CO)NC(=O)[C@@H](NC(=O)[C@H](Cc1ccccc1)NC(=O)[C@@H](NC(=O)CNC(=O)[C@H](Cc1c[nH]cn1)NC(=O)C(C)(C)NC(=O)CCc1c[nH]cn1)[C@@H](C)O)[C@@H](C)O)C(C)C)C(=O)N[C@@H](C)C(=O)N[C@@H](Cc1c[nH]c2ccccc12)C(=O)N[C@@H](CC(C)C)C(=O)N[C@@H](CC(C)C)C(=O)N[C@@H](CCCCNC(=O)COCCOCCNC(=O)COCCOCCNC(=O)CC[C@H](NC(=O)CC[C@H](NC(=O)CCCCCCCCCCCCCCCCC(=O)O)C(=O)O)C(=O)O)C(=O)N[C@H](C(N)=O)[C@@H](C)O [Example 5, N^ε34-[2-[2-[2-[[2-[2-[2-[[(4S)-4-carboxy-4-[[(4S)-4-carboxy-4-(17-carboxyheptadecanoylamino)butanoyl]amino]butanoyl]amino]ethoxy]ethoxy]acetyl]amino]ethoxy]ethoxy]acetyl]-[Imp7,Aib8,His9,Lys18,Glu22,Arg26,Leu33,Thr35]-GLP-1-(7-35)-peptide amide] (Desaminohistidyl-[Aib]HGTFTSDVSKYLEEQAAREFIAWLLK([AEEA-AEEA-γGlu-γGlu-C18 diacid])T-NH2) | 0.4%
6 | CC[C@H](C)[C@H](NC(=O)[C@H](Cc1ccccc1)NC(=O)[C@H](CCC(=O)O)NC(=O)[C@H](CCCNC(=N)N)NC(=O)[C@H](C)NC(=O)[C@H](C)NC(=O)[C@H](CCCNC(=N)N)NC(=O)[C@H](C)NC(=O)[C@H](CCC(=O)O)NC(=O)[C@H](CC(C)C)NC(=O)[C@H](Cc1ccc(O)cc1)NC(=O)[C@H](CCCCN)NC(=O)[C@H](CO)NC(=O)[C@@H](NC(=O)[C@H](CC(=O)O)NC(=O)[C@H](CO)NC(=O)[C@@H](NC(=O)[C@H](Cc1ccccc1)NC(=O)[C@@H](NC(=O)CNC(=O)[C@H](Cc1c[nH]cn1)NC(=O)C(C)(C)NC(=O)CCc1c[nH]cn1)[C@@H](C)O)[C@@H](C)O)C(C)C)C(=O)N[C@@H](C)C(=O)N[C@@H](Cc1c[nH]c2ccccc12)C(=O)N[C@@H](CC(C)C)C(=O)N[C@@H](CC(C)C)C(=O)N[C@@H](CCCCNC(=O)CC[C@H](NC(=O)COCCOCCNC(=O)COCCOCCNC(=O)CC[C@H](NC(=O)CC[C@H](NC(=O)CCCCCCCCCCCCCCCCC(=O)O)C(=O)O)C(=O)O)C(=O)O)C(=O)NCC(=O)NCC(=O)NCC(=O)O [Example 31, N^ε34-[(4S)-4-carboxy-4-[[2-[2-[2-[[2-[2-[2-[[(4S)-4-carboxy-4-[[(4S)-4-carboxy-4-(17-carboxyheptadecanoylamino)butanoyl]amino]butanoyl]amino]ethoxy]ethoxy]acetyl]amino]ethoxy]ethoxy]acetyl]amino]butanoyl]-[Imp7,Aib8,His9,Lys18,Ala22,Arg23,Arg26,Leu33,Gly36]-GLP-1-(7-37)-peptide] (Desaminohistidyl-[Aib]HGTFTSDVSKYLEARAAREFIAWLLK([γGlu-AEEA-AEEA-γGlu-γGlu-C18 diacid])GGG-OH) | 0.1%
